US20080114063A1, “Use of 2,5-Dihydroxybenzene Derivatives for the Treatment of Tissue Reactive Diseases” (Action Medicines, priority 2006, published 2008)
“Also recorded” adds a separate entry of the source.

Legend:
[1] = test system: intestinal inflammatory disease (IID) induced by 3% dextran sulfate sodium; assay: Intestinal inflammatory disease induced by dextran sulfate sodium (DSS) in the mouse; assay type: in vivo, mice of strain C57BL/6J-664; conditions: for disease clinical score (0 to 6 scale): two DSS cycles
Source text: The induction of the intestinal inflammatory disease described below is a representative model for the evaluation of therapeutic strategies to treat Crohn's disease and ulcerative colitis. 7-8 week old female mice of strain C57BL/6J-664 were used. The intestinal inflammatory disease (IID) was induced by feeding the mice with 3% dextran sulfate sodium (DSS; MW 40,000) dissolved in drinking water in 2 cycles. Each cycle consisted of 7 days with 3% DSS in the drinking water separated by 7 days with regular water. A daily clinical evaluation of the animals was performed in which the body weight, the consistency of the faeces and the presence of blood in the faeces were determined. Thus, the validated score of the clinical activity of the disease was evaluated with a 0 to 6 scale, considering the following parameters: consistency of the faeces, presence or absence of fecal blood and loss of weight.
At the end of the first cycle of exposure to DSS, the mice were divided into the following treatment groups: a first group was administered intraperitoneal (i.p) injections of vehicle (0.9% NaCl). Another group received intramuscular injections of Solu-Medrol, a standard IID treatment, at a dose of 10 mg/kg/day. A third group was administered i.p. injections of potassium 2,5-diacetroxybenzene sulfonate (DABS, 100 mg/kg/day). The last group was treated orally with 125 mg/kg day of DABS.

[2] = molecular target: fibroblast growth factor-1 (FGF-1) (Homo sapiens, UniProt P05230); assay: Co-crystallization with FGF-1 (crystal diffraction); assay type: binding; conditions: electron density contoured at 1σ, site close to that of 2,5-dihydroxybenzenesulfonic acid
Description: Based on the crystal diffraction of the FGF-1:2-acetoxy-5-hydroxybenzene sulfonic acid, FGF-1:5-acetoxy-2-hydroxybenzene sulfonic acid and FGF-1:2,5-diacetoxybenzene sulfonic acid complexes, the structures of the complexes were calculated and represented. FIGS. 20, 21 and 22, which show the surface of the dyed protein according to its electrostatic potential (light grey: negative charge; dark grey: positive charge; white: lack of charge), show the manner in which 2-acetoxy-5-hydroxybenzene sulfonic acid, 5-acetoxy-2-hydroxybenzene sulfonic acid and 2,5-diacetoxybenzene sulfonic acid interact, respectively, with FGF-1.

[3] = test system: OVA-sensitized mice; assay: Experimentally induced (OVA) asthma in mice: methacholine bronchoconstriction and BAL cell count; assay type: in vivo, Balb/c mice; conditions: for methacholine induced bronchoconstriction (Penh): methacholine 5 and 20 mg/mL
Description: 6-9 week old Balb/c mice were used. The ovoalbumin (OVA)/aluminum complex was obtained after dissolving OVA (500 μg/mL) in PBS, and mixing it with an equal volume of 10% aluminum potassium sulfate at pH 6.5 for 1 hour. After centrifuging the pellet (750×g for 5 minutes) the OVA/aluminum pellet was resuspended in distilled water. On day 0, the mice were intraperitoneally injected with 100 μg of OVA/aluminum. Eight days later, the mice were anesthetized and exposed to 250 μg of OVA. Later, they were administered 125 μg of OVA on days 15, 18 and 21. Each […] received sublingual administration of OVA.
The following treatments were administered to the animals: (i.p.) vehicle from day 2, potassium 2,5-diacetoxybencene sulfonate (DABS; 100 mg/kg/day, i.p.) from day 2, DABS (100 mg/kg/day, i.p.) from day 8 and Combivent (20 μg/200 μg in aerosol) on days 20, 21 and 22, the latter as a reference treatment.
In order to evaluate the pulmonary function, the response to methacholine in conscious mice was determined, 24 hours after the last exposure to OVA. The mice were exposed to increasing methacholine concentrations (5 and 20 mg/mL) in the form of aerosol using an ultrasonic nebulizer during 2 minutes. The degree of bronchoconstriction was expressed as the enhanced […] (Penh) which correlates to the mouse air resistance, impedance and pressure within the pleura. The Penh was calculated using the formula Penh=[(Te/Rt−1)×(PEF/PIF)], where Te is expiratory time, Rt is relaxation time, PEF is peak expiratory flow and PIF is peak inspiratory flow×0.67 coefficient.
After measuring airway hyperreactivity, the mice were sacrificed and bronchoalveolar lavage (BAL) of the right lung was collected. The total number of cells in the BAL fluid was determined.

[4] = test system: Leishmania major; assay: Experimental infection with Leishmania major in mouse paw pad (lesion size); assay type: in vivo, Leishmania major in BALB/c female mice
Source text: This model is based in the massive inoculation of Leishmania promatigotes in the mouse paw pad. Under these conditions, the parasite induces a progressive inflammation correlated with the multiplication of parasites at the site of inoculation. BALB/c strain female mice that developed severe and uncontrolled injuries were used (Foote S J, Handman E. Brief Funct Genomic Proteomic, 2005). This model has been used in pharmacology to monitor the therapeutic capacity of new leishmanicide compounds and the preventive capacity of potential vaccines against leishmaniasis ((Nelson K G et al. Antimicrob Agents Chemother. 2006).
The animals were inoculated with 5×10^6 of L. major promastigotes (strain Hervás) in 50 μL of PBS into the plantar pad of the right back paw. As negative control of the infection, a group of mice inoculated with 50 μL of PBS was used. The sizes of the lesions were measured every 7 days until the animals were sacrificed (week 9) using a Vernier caliper. The thickness of the right back paw (infected) and the left back paw (uninfected) of all the animals was measured at the base of the fifth toe. The progression of the inflammation is represented as the difference in thickness between the infected and the non-infected paws. […]

[5] = test system: fibroblast growth factor-1 (FGF-1) induced mitogenesis in Balb/c 3T3 fibroblasts; assay: Inhibition of FGF-1 induced mitogenesis in quiescent Balb/c 3T3 fibroblast cultures; assay type: cell-based; conditions: quiescent cultures of Balb/c 3T3 fibroblasts
Description: The evaluated compounds were used in the form of potassium salt, except in the first case in which calcium salt was used. The experiments were carried out as described in Fernández-Tornero C et al. J Biol Chem, 2003.

[6] = test system: rat C6 glioma cells; assay: Proliferation of rat glioma C6 cells (crystal violet); assay type: cell-based; conditions: 500 μM, 48 h, crystal violet absorbance at 595 nm
Description: FIG. 19. […] 5A-2HBS and 2A-5HBS were administered or not (control) after seeding C6 cells in 24 well plates (10^4 per well) until they were fixed 48 hours later. Data are expressed as the mean ±SEM of the percentage of absorbance at 595 nm obtained in control cultures, which is proportional to the number of cells stained with crystal violet. Data were obtained from 3 cultures for each treatment and 6 control cultures.
The cell line used was the C6 cell line and the experiment was carried out as described in examples 2 and 3. Once adhered, the cells were treated or not (controls) with (5A-2HBS) (500 μM) or (2A-5HBS) (500 μM) and they were allowed to proliferate for 48 h. After this time the glioma cell proliferation was evaluated by means of staining the fixed cells with crystal violet. The number of cells is proportional to the amount of retained dye, which was determined spectrophotometrically by measuring the absorbance at 595 nm once the dye was extracted from the cells.

Sequence of fibroblast growth factor-1 (FGF-1) (P05230 whole entry, species assumed): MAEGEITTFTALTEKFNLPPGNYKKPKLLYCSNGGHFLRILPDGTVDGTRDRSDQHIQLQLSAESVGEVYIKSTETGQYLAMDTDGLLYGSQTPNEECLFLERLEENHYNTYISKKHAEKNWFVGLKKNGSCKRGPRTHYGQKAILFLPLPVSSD

C[C@H]1C[C@@H]2[C@H]([C@@H](O)C[C@@]3(C)[C@H]2CC[C@]3(O)C(=O)COC(=O)CCC(=O)O)[C@@]2(C)C=CC(=O)C=C12 [Solu-Medrol, reference compound]
effect on body weight ([1]; Solu-Medrol 10 mg/kg/day i.m., two 7-day DSS cycles, vs vehicle): significant effect on the body weight

CC(=O)Oc1ccc(O)c(S(=O)(=O)O)c1 [5-acetoxy-2-hydroxybenzenesulfonic acid]
state of the compound when bound to FGF-1 (co-crystal electron density) [2]: conserves the acetoxyl group in position 5 when it binds to the protein

CC(=O)Oc1ccc(OC(C)=O)c(S(=O)(=O)[O-])c1.[K+] [DABS, potassium 2,5-diacetoxybenzene sulfonate]
methacholine induced bronchoconstriction (Penh) ([3]; 100 mg/kg/day i.p. from day 2): completely prevented | methacholine induced bronchoconstriction (Penh) ([3]; 100 mg/kg/day i.p. from day 8): completely prevented | presence of cells in bronchoalveolar lavage (BAL) ([3]; 100 mg/kg/day i.p., right lung BAL, vs vehicle): significantly reduced | increase of the Penh after exposure to methacholine vs saline ([3]; mouse, in vivo): do not show a significant increase of the Penh | reduction of BAL cells compared with Combivent ([3]; mouse, in vivo): even more than the treatment with Combivent | size of the lesion (paw thickness difference) ([4]; 200 mg/kg daily i.p. from day 0 to week 9, effect from the third week post-infection): statistically significant reduction in the size of the lesion | size of the lesion (paw thickness difference) ([4]; 200 mg/kg/day i.p. from the third week after inoculation, effect from the eighth week): significantly smaller | disease clinical score (0 to 6 scale) ([1]; 100 mg/kg/day i.p.): reduced | disease clinical score (0 to 6 scale) ([1]; 125 mg/kg/day orally): reduced | loss of body weight produced by DSS ([1]; DABS 100 mg/kg/day i.p. or 125 mg/kg/day p.o., two 7-day DSS cycles, vs vehicle): reduced; also recorded: significant effect on the body weight | efficacy compared with standard treatment Solu-Medrol (body weight and clinical score) ([1]; DABS i.p. or p.o. vs Solu-Medrol 10 mg/kg/day i.m.): not lower (in some points it is higher) | inhibition of FGF-1 induced mitogenesis [5]: Inhibition of FGF-1 induced mitogenesis

calcium 2-acetoxy-5-hydroxybenzenesulfonate [2A-5HBS]
inhibition of FGF-1 induced mitogenesis [5]: Inhibition of FGF-1 induced mitogenesis

CC(=O)Oc1ccc(OC(C)=O)c(S(=O)(=O)O)c1 [2,5-diacetoxybenzenesulfonic acid]
state of the compound when bound to FGF-1 (co-crystal electron density) [2]: conserves the acetoxyl groups in positions 2 and 5 when it binds to the protein

CC(=O)Oc1ccc(O)cc1S(=O)(=O)O [2-acetoxy-5-hydroxybenzenesulfonic acid]
state of the compound when bound to FGF-1 (co-crystal electron density) [2]: conserves the acetoxyl group in position 2 when it binds to the protein

CC(=O)Oc1ccc(O)c(S(=O)(=O)[O-])c1.[K+] [5A-2HBS, potassium 5-acetoxy-2-hydroxybenzene sulfonate]
rat glioma cell proliferation [6]: inhibition of rat glioma cell proliferation | inhibition of FGF-1 induced mitogenesis [5]: Inhibition of FGF-1 induced mitogenesis
